Data reported in PubChem BioAssay AID1963835 (Molecular Pharmacology Branch, DTP, NCI, 2024).

Tested on: 699152-130-R-J1-PDC complex spheroid viability
Assay: Anticancer human tumor 699152-130-R-J1-PDC patient-derived pancreatic carcinoma cell line growth inhibition [POLQ]
Settings: for IC50: curve of first compound; for viability, T/C: stronger effect = lower value
In short: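 Patient-derived tumour cells were co-cultured with HUVEC and mesenchymal stem cells as multicellular spheroids at 37 °C. They were treated with POLQ inhibitors (novobiocin, ART-558, RP6685) alone or combined with other agents. Top concentrations were at or near clinical Cmax (otherwise 10 microM; SN-38 at 1 microM), decreasing in half-log steps.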
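Further: spheroids exposed to agents for 7 days before viability reading.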
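Wherever viability, T/C is given: percent of DMSO vehicle control viability so 100% = vehicle and 0% = no viable signal.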

Question: C#Cc1c(F)ccc2cc(O)cc(-c3ncc4c(N5CC6CCC(C5)N6)nc(OCC56CCCN5CC(F)C6)nc4c3F)c12 (configuration not stated) + Nc1ccc(C#CCN(C(=O)Cc2ncc(C(F)(F)F)cc2C(F)(F)F)c2ccc(F)cc2)nn1 was tested. Which IC50 (second compound 0.0316 µM) did it give?
Answer: < 0.0316 µM

Question: What about the IC50 (second compound 0.1 µM) of the same compound?
Answer: < 0.0316 µM

Question: And the IC50 (second compound 0.316 µM)?
Answer: < 0.0316 µM

Question: And the IC50 (second compound 1 µM)?
Answer: < 0.0316 µM

Question: And the IC50 (second compound 3.16 µM)?
Answer: < 0.0316 µM

Question: And the IC50 (second compound 10 µM)?
Answer: < 0.0316 µM

Question: What about the viability, T/C (second compound 0.0316 µM, first compound 0.0316 µM) of the same compound?
Answer: 26%

Question: What about the viability, T/C (second compound 0.0316 µM, first compound 0.1 µM) of the same compound?
Answer: 18.8%

Question: And the viability, T/C (second compound 0.0316 µM, first compound 0.316 µM)?
Answer: 14.6%

Question: What about the viability, T/C (second compound 0.0316 µM, first compound 1 µM) of the same compound?
Answer: 12.1%

Question: And the viability, T/C (second compound 0.0316 µM, first compound 3.16 µM)?
Answer: 14.2%

Question: What about the viability, T/C (second compound 0.0316 µM, first compound 10 µM) of the same compound?
Answer: 11.9%

Question: And the viability, T/C (second compound 0.1 µM, first compound 0.0316 µM)?
Answer: 25.1%

Question: And the viability, T/C (second compound 0.1 µM, first compound 0.1 µM)?
Answer: 21.8%

Question: And the viability, T/C (second compound 0.1 µM, first compound 0.316 µM)?
Answer: 15.4%

Question: And the viability, T/C (second compound 0.1 µM, first compound 1 µM)?
Answer: 13.7%

Question: And the viability, T/C (second compound 0.1 µM, first compound 3.16 µM)?
Answer: 13.3%

Question: What about the viability, T/C (second compound 0.1 µM, first compound 10 µM) of the same compound?
Answer: 13.2%

Question: What about the viability, T/C (second compound 0.316 µM, first compound 0.0316 µM) of the same compound?
Answer: 24%

Question: And the viability, T/C (second compound 0.316 µM, first compound 0.1 µM)?
Answer: 16.3%

Question: What about the viability, T/C (second compound 0.316 µM, first compound 0.316 µM) of the same compound?
Answer: 18.9%

Question: And the viability, T/C (second compound 0.316 µM, first compound 1 µM)?
Answer: 12.3%

Question: What about the viability, T/C (second compound 0.316 µM, first compound 3.16 µM) of the same compound?
Answer: 12.4%

Question: And the viability, T/C (second compound 0.316 µM, first compound 10 µM)?
Answer: 12.1%

Question: What about the viability, T/C (second compound 1 µM, first compound 0.0316 µM) of the same compound?
Answer: 18.8%

Question: And the viability, T/C (second compound 1 µM, first compound 0.1 µM)?
Answer: 18.8%

Question: What about the viability, T/C (second compound 1 µM, first compound 0.316 µM) of the same compound?
Answer: 13.5%

Question: What about the viability, T/C (second compound 1 µM, first compound 1 µM) of the same compound?
Answer: 12.8%

Question: What about the viability, T/C (second compound 1 µM, first compound 3.16 µM) of the same compound?
Answer: 12.8%

Question: And the viability, T/C (second compound 1 µM, first compound 10 µM)?
Answer: 12.4%

Question: And the viability, T/C (second compound 3.16 µM, first compound 0.0316 µM)?
Answer: 21.6%

Question: And the viability, T/C (second compound 3.16 µM, first compound 0.1 µM)?
Answer: 16.9%

Question: What about the viability, T/C (second compound 3.16 µM, first compound 0.316 µM) of the same compound?
Answer: 13%

Question: What about the viability, T/C (second compound 3.16 µM, first compound 1 µM) of the same compound?
Answer: 13.3%

Question: What about the viability, T/C (second compound 3.16 µM, first compound 3.16 µM) of the same compound?
Answer: 11.8%

Question: And the viability, T/C (second compound 3.16 µM, first compound 10 µM)?
Answer: 14.2%

Question: And the viability, T/C (second compound 10 µM, first compound 0.0316 µM)?
Answer: 32.2%

Question: What about the viability, T/C (second compound 10 µM, first compound 0.1 µM) of the same compound?
Answer: 18.8%

Question: What about the viability, T/C (second compound 10 µM, first compound 0.316 µM) of the same compound?
Answer: 14.3%

Question: What about the viability, T/C (second compound 10 µM, first compound 1 µM) of the same compound?
Answer: 14.6%

Question: And the viability, T/C (second compound 10 µM, first compound 3.16 µM)?
Answer: 13.5%

Question: What about the viability, T/C (second compound 10 µM, first compound 10 µM) of the same compound?
Answer: 11.5%
